Test results: ChEMBL document CHEMBL2440076, “New triarylpyrazoles as broad-spectrum anticancer agents: design, synthesis, and biological evaluation” (Eur J Med Chem, 2013)

Experiments:
[1] = system: IGROV-1; experiment: Growth inhibition of human IGROV1 cells after 48 hrs by sulforhodamine B assay; format: functional; conditions: IGROV-1, 48 h
[2] = system: OVCAR-5; experiment: Growth inhibition of human OVCAR5 cells assessed as cell growth at 10 uM after 48 hrs by sulforhodamine B assay; format: functional; conditions: OVCAR-5, 48 h, read-out: Activity
[3] = system: SF-268; experiment: Growth inhibition of human SF268 cells assessed as cell growth at 10 uM after 48 hrs by sulforhodamine B assay; format: functional; conditions: SF-268, 48 h, read-out: Activity
[4] = Growth inhibition of human Hs 578T cells after 48 hrs by sulforhodamine B assay; format: functional
[5] = system: UACC-257; experiment: Growth inhibition of human UACC257 cells after 48 hrs by sulforhodamine B assay; format: functional; conditions: UACC-257, 48 h
[6] = system: MDA-MB-231; experiment: Growth inhibition of human MDA-MB-231 cells after 48 hrs by sulforhodamine B assay; format: functional; conditions: MDA-MB-231, 48 h
[7] = Growth inhibition of human NCI-ADR-RES cells after 48 hrs by sulforhodamine B assay; format: functional
[8] = system: RXF 393; experiment: Growth inhibition of human RXF393 cells after 48 hrs by sulforhodamine B assay; format: functional; conditions: RXF 393, 48 h
[9] = system: RPMI-8226; experiment: Growth inhibition of human RPMI8226 cells assessed as cell growth at 10 uM after 48 hrs by sulforhodamine B assay; format: functional; conditions: RPMI-8226, 48 h, read-out: Activity
[10] = system: NCI-H322M; experiment: Growth inhibition of human NCI-H322M cells after 48 hrs by sulforhodamine B assay; format: functional
[11] = system: MDA-MB-435; experiment: Growth inhibition of human MDA-MB-435 cells after 48 hrs by sulforhodamine B assay; format: functional, cell-based; conditions: MDA-MB-435, 48 h
[12] = system: HL-60(TB); experiment: Growth inhibition of human HL-60(TB) cells after 48 hrs by sulforhodamine B assay; format: functional; conditions: HL-60, 48 h
[13] = system: OVCAR-5; experiment: Growth inhibition of human OVCAR5 cells after 48 hrs by sulforhodamine B assay; format: functional; conditions: OVCAR-5, 48 h
[14] = system: T47D; experiment: Growth inhibition of human T47D cells assessed as cell growth at 10 uM after 48 hrs by sulforhodamine B assay; format: functional; conditions: read-out: Activity
[15] = system: CCRF-CEM; experiment: Growth inhibition of human CCRF-CEM cells after 48 hrs by sulforhodamine B assay; format: functional
[16] = system: SW-620; experiment: Growth inhibition of human SW620 cells assessed as cell growth at 10 uM after 48 hrs by sulforhodamine B assay; format: functional; conditions: SW-620, 48 h, read-out: Activity
[17] = system: NCI-H23; experiment: Growth inhibition of human NCI-H23 cells assessed as cell growth at 10 uM after 48 hrs by sulforhodamine B assay; format: functional; conditions: NCI-H23, 48 h, read-out: Activity
[18] = system: DU-145; experiment: Growth inhibition of human DU145 cells assessed as cell growth at 10 uM after 48 hrs by sulforhodamine B assay; format: functional; conditions: DU-145, 48 h, read-out: Activity
[19] = system: MOLT-4; experiment: Growth inhibition of human MOLT4 cells after 48 hrs by sulforhodamine B assay; format: functional; conditions: MOLT-4, 48 h
[20] = system: KM12; experiment: Growth inhibition of human KM12 cells after 48 hrs by sulforhodamine B assay; format: functional, cell-based; conditions: KM12, 48 h
[21] = system: BT-549; experiment: Growth inhibition of human BT549 cells after 48 hrs by sulforhodamine B assay; format: functional; conditions: BT-549, 48 h
[22] = system: HOP-62; experiment: Growth inhibition of human HOP62 cells assessed as cell growth at 10 uM after 48 hrs by sulforhodamine B assay; format: functional; conditions: HOP-62, 48 h, read-out: Activity
[23] = system: K562; experiment: Growth inhibition of human K562 cells assessed as cell growth at 10 uM after 48 hrs by sulforhodamine B assay; format: functional; conditions: K562, 48 h, read-out: Activity
[24] = system: NCI-H460; experiment: Growth inhibition of human NCI-H460 cells after 48 hrs by sulforhodamine B assay; format: functional; conditions: NCI-H460, 48 h
[25] = system: MCF7; experiment: Growth inhibition of human MCF7 cells after 48 hrs by sulforhodamine B assay; format: functional; conditions: MCF7, 48 h
[26] = system: SK-MEL-28; experiment: Growth inhibition of human SK-MEL-28 cells assessed as cell growth at 10 uM after 48 hrs by sulforhodamine B assay; format: functional; conditions: SK-MEL-28, 48 h, read-out: Activity
[27] = system: COLO 205; experiment: Growth inhibition of human COLO205 cells assessed as cell growth at 10 uM after 48 hrs by sulforhodamine B assay; format: functional; conditions: COLO 205, 48 h, read-out: Activity
[28] = system: MDA-MB-231; experiment: Growth inhibition of human MDA-MB-231 cells assessed as cell growth at 10 uM after 48 hrs by sulforhodamine B assay; format: functional; conditions: MDA-MB-231, 48 h, read-out: Activity
[29] = system: U-251; experiment: Growth inhibition of human U251 cells assessed as cell growth at 10 uM after 48 hrs by sulforhodamine B assay; format: functional; conditions: U-251, 48 h, read-out: Activity
[30] = system: PC-3; experiment: Growth inhibition of human PC3 cells after 48 hrs by sulforhodamine B assay; format: functional, cell-based; conditions: PC-3, 48 h
[31] = system: SK-MEL-2; experiment: Growth inhibition of human SK-MEL-2 cells after 48 hrs by sulforhodamine B assay; format: functional; conditions: SK-MEL-2, 48 h
[32] = system: M14; experiment: Growth inhibition of human M14 cells assessed as cell growth at 10 uM after 48 hrs by sulforhodamine B assay; format: functional; conditions: M14, 48 h, read-out: Activity
[33] = system: SF-295; experiment: Growth inhibition of human SF295 cells after 48 hrs by sulforhodamine B assay; format: functional, cell-based; conditions: SF-295, 48 h
[34] = read-out: LC50 (the source's name)

COc1cc(-c2nn(-c3cccc(NC(=O)Nc4cccc(C(F)(F)F)c4)c3)cc2-c2ccncc2)ccc1Cl
GI50 [1]: 1060 nM
LC50 (concentration killing 50% of cells) [1]: 50000 nM
TGI [1]: 3110 nM
growth at 10 µM [2]: 28.2%
growth at 10 µM [3]: 2.35%
GI50 [4]: 1230 nM
TGI [4]: 12500 nM
CC50 [4, 34]: > 50000 nM
GI50 [5]: 923 nM
TGI [5]: 2310 nM
CC50 [5, 34]: 7580 nM
GI50 [6]: 811 nM
LC50 [6]: 25500 nM
TGI [6]: 2370 nM
GI50 [7]: 783 nM
TGI [7]: 3640 nM
CC50 [7, 34]: > 50000 nM
GI50 [8]: 777 nM
LC50 (concentration killing 50% of cells) [8]: 4830 nM
TGI [8]: 1940 nM
growth at 10 µM [9]: -14.8%
GI50 [10]: 1210 nM
TGI [10]: 4730 nM
CC50 [10, 34]: > 50000 nM
GI50 [11]: 866 nM
IC50 [11]: 870 nM
TGI [11]: 2140 nM
CC50 [11, 34]: 8070 nM
GI50 [12]: 1370 nM
TGI [12]: > 50000 nM
CC50 [12, 34]: > 50000 nM
GI50 [13]: 1270 nM
LC50 (concentration killing 50% of cells) [13]: > 50000 nM
TGI [13]: 6450 nM
growth at 10 µM [14]: -4.03%
GI50 [15]: 945 nM
LC50 [15]: > 50000 nM
growth at 10 µM [16]: 8.92%
growth at 10 µM [17]: -12.4%
growth at 10 µM [18]: 9.75%
GI50 [19]: 936 nM
TGI [19]: 3480 nM
CC50 [19, 34]: > 50000 nM
GI50 [20]: 573 nM
IC50 [20]: 570 nM
TGI [20]: 1980 nM
CC50 [20, 34]: > 50000 nM
GI50 [21]: 1250 nM
LC50 (50% lethal concentration) [21]: 50000 nM
TGI [21]: 3810 nM
growth at 10 µM [22]: -29.9%
growth at 10 µM [23]: 1.6%
GI50 [24]: 763 nM
LC50 [24]: > 50000 nM
TGI [24]: 3530 nM
GI50 [25]: 751 nM
LC50 [25]: > 50000 nM
TGI [25]: 7720 nM
growth at 10 µM [26]: -18.6%
growth at 10 µM [27]: -88.9%
growth at 10 µM [28]: -28.8%
growth at 10 µM [29]: -82.2%
GI50 [30]: 372 nM
IC50 [30]: 370 nM
TGI [30]: 2510 nM
CC50 [30, 34]: > 50000 nM
GI50 [31]: 970 nM
LC50 (50% lethal concentration) [31]: 3960 nM
TGI [31]: 1960 nM
growth at 10 µM [32]: -61.5%
GI50 [33]: 306 nM
IC50 [33]: 310 nM
TGI [33]: 1130 nM
CC50 [33, 34]: 3200 nM
